In patent publication US20130303509A1, “NAMPT INHIBITORS” (AbbVie Inc., priority 2012, published 2013) one finds IC50 data, which are given here for 32 molecules.

This experiment deals with PC3 cells. Briefly: NAMPT Cell Proliferation Assay. The class given is cell-based. To be noted: Homo sapiens, PC-3, 120 h, 5 days incubation, cell viability by Cell Titer Glo. A digest of the protocol: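 Five-day CellTiter-Glo viability readout in PC3 cells grown in RPMI/10% heat-inactivated FBS. Compounds added after overnight attachment as a 10-fold dilution series, […]. Percent inhibition fitted to sigmoidal dose-response to derive IC50.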
On the technique in general: Cellular ATP, detected with luciferase, serves as a proxy for viable cell number.

The molecule `O=C(N[C@H]1CCN(c2cccnn2)C1)c1ccc(C2CCN(C(=O)c3ccc(F)cc3F)CC2)s1` [Example 761, 5-[1-(2,4-difluorobenzoyl)piperidin-4-yl]-N-[(3S)-1-(pyridazin-3-yl)pyrrolidin-3-yl]thiophene-2-carboxamide] showed an IC50 of 92.3 nM.
In turn, `CC1CC1C(=O)N1CCC(c2ccc(C(=O)N[C@H]3CCN(c4cccnn4)C3)s2)CC1` (stereo partly drawn) [Example 762, 5-{1-[(2-methylcyclopropyl)carbonyl]piperidin-4-yl}-N-[(3S)-1-(pyridazin-3-yl)pyrrolidin-3-yl]thiophene-2-carboxamide] yielded an IC50 of 709 nM.
As to `O=C(N[C@H]1CCN(c2cccnn2)C1)c1ccc(C2CCN(C(=O)c3ccccc3F)CC2)s1` [Example 763, 5-[1-(2-fluorobenzoyl)piperidin-4-yl]-N-[(3S)-1-(pyridazin-3-yl)pyrrolidin-3-yl]thiophene-2-carboxamide], the half-maximal inhibitory concentration (IC50) was 8.41 nM.
In turn, `O=C(N[C@H]1CCN(c2cccnn2)C1)c1ccc(C2CCN(C(=O)c3ccccc3)CC2)s1` [Example 764, 5-(1-benzoylpiperidin-4-yl)-N-[(3S)-1-(pyridazin-3-yl)pyrrolidin-3-yl]thiophene-2-carboxamide] gave a 50% inhibitory concentration (IC50) of 22.1 nM.
Consider `O=C(N[C@H]1CCN(c2cccnn2)C1)c1ccc(C2CCN(C(=O)C3CCOC3)CC2)s1` (stereo partly drawn) [Example 765, N-[(3S)-1-(pyridazin-3-yl)pyrrolidin-3-yl]-5-[1-(tetrahydrofuran-3-ylcarbonyl)piperidin-4-yl]thiophene-2-carboxamide], for which the IC50 was 1020 nM.
In turn, `O=C(N[C@H]1CCN(c2cccnn2)C1)c1ccc(C2CCN(C(=O)[C@H]3CCCO3)CC2)s1` [Example 766, N-[(3S)-1-(pyridazin-3-yl)pyrrolidin-3-yl]-5-{1-[(2R)-tetrahydrofuran-2-ylcarbonyl]piperidin-4-yl}thiophene-2-carboxamide] returned an IC50 of 787 nM.
With `CN1CCC(CC(=O)N2CCC(c3ccc(C(=O)N[C@H]4CCN(c5cccnn5)C4)s3)CC2)CC1` [Example 767, 5-{1-[(1-methylpiperidin-4-yl)acetyl]piperidin-4-yl}-N-[(3S)-1-(pyridazin-3-yl)pyrrolidin-3-yl]thiophene-2-carboxamide], the IC50 came to 1280 nM.
Regarding `O=C(N[C@H]1CCN(c2cccnn2)C1)c1ccc(C2CCN(C(=O)c3cscn3)CC2)s1` [Example 768, N-[(3S)-1-(pyridazin-3-yl)pyrrolidin-3-yl]-5-[1-(1,3-thiazol-4-ylcarbonyl)piperidin-4-yl]thiophene-2-carboxamide], half-maximal inhibition (IC50) was put at 111 nM.
For `CC(C)Cn1cc(-c2ccc(NC(=O)[C@H]3CCN(c4cccnn4)C3)cc2)cn1` [Example 769, (3S)-N-{4-[1-(2-methylpropyl)-1H-pyrazol-4-yl]phenyl}-1-(pyridazin-3-yl)pyrrolidine-3-carboxamide] the value was 18.6 nM.
`CC(C)n1cc(-c2ccc(NC(=O)[C@H]3CCN(c4cccnn4)C3)cc2)cn1` [Example 770, (3S)-N-{4-[1-(propan-2-yl)-1H-pyrazol-4-yl]phenyl}-1-(pyridazin-3-yl)pyrrolidine-3-carboxamide] gave an IC50 of 138 nM.
`O=C(Nc1ccc(-c2cnn(CC3CC3)c2)cc1)[C@H]1CCN(c2cccnn2)C1` [Example 771, (3S)-N-{4-[1-(cyclopropylmethyl)-1H-pyrazol-4-yl]phenyl}-1-(pyridazin-3-yl)pyrrolidine-3-carboxamide] gave an IC50 of 69.9 nM.
`O=C(Nc1ccc(-c2cnn(CC3CCCCO3)c2)cc1)[C@H]1CCN(c2cccnn2)C1` (stereo partly drawn) [Example 772, (3S)-1-(pyridazin-3-yl)-N-{4-[1-(tetrahydro-2H-pyran-2-ylmethyl)-1H-pyrazol-4-yl]phenyl}pyrrolidine-3-carboxamide] showed an IC50 of 63.6 nM.
The molecule `CC(C)(C)n1cc(-c2ccc(NC(=O)[C@H]3CCN(c4cccnn4)C3)cc2)cn1` [Example 773, (3S)-N-[4-(1-tert-butyl-1H-pyrazol-4-yl)phenyl]-1-(pyridazin-3-yl)pyrrolidine-3-carboxamide] registered an IC50 of 85.7 nM.
Turning to `O=C(Nc1ccc(O[C@@H]2CCN(C(=O)c3ccccc3)C2)cc1)[C@H]1CCN(c2cccnn2)C1` [Example 774, (3S)—N-(4-{[(3R)-1-benzoylpyrrolidin-3-yl]oxy}phenyl)-1-(pyridazin-3-yl)pyrrolidine-3-carboxamide], the IC50 worked out at 2.52 nM.
`O=C(Nc1ccc(O[C@@H]2CCN(C(=O)c3ccccc3F)C2)cc1)[C@H]1CCN(c2cccnn2)C1` [Example 775, (3S)-N-(4-{[(3R)-1-(2-fluorobenzoyl)pyrrolidin-3-yl]oxy}phenyl)-1-(pyridazin-3-yl)pyrrolidine-3-carboxamide] returned an IC50 of 2.15 nM.
For `O=C(Nc1ccc(O[C@@H]2CCN(C(=O)c3cccc(F)c3)C2)cc1)[C@H]1CCN(c2cccnn2)C1` [Example 776, (3S)-N-(4-{[(3R)-1-(3-fluorobenzoyl)pyrrolidin-3-yl]oxy}phenyl)-1-(pyridazin-3-yl)pyrrolidine-3-carboxamide] the value was 7.64 nM.
For `O=C(Nc1ccc(O[C@@H]2CCN(C(=O)c3ccc(F)cc3)C2)cc1)[C@H]1CCN(c2cccnn2)C1` [Example 777, (3S)-N-(4-{[(3R)-1-(4-fluorobenzoyl)pyrrolidin-3-yl]oxy}phenyl)-1-(pyridazin-3-yl)pyrrolidine-3-carboxamide] the value was 19.2 nM; for `O=C(Nc1ccc(O[C@@H]2CCN(C(=O)c3cc(F)cc(F)c3)C2)cc1)[C@H]1CCN(c2cccnn2)C1` [Example 778, (3S)-N-(4-{[(3R)-1-(3,5-difluorobenzoyl)pyrrolidin-3-yl]oxy}phenyl)-1-(pyridazin-3-yl)pyrrolidine-3-carboxamide], 19.7 nM; for `Cc1ccccc1C(=O)N1CC[C@@H](Oc2ccc(NC(=O)[C@H]3CCN(c4cccnn4)C3)cc2)C1` [Example 779, (3S)-N-(4-{[(3R)-1-(2-methylbenzoyl)pyrrolidin-3-yl]oxy}phenyl)-1-(pyridazin-3-yl)pyrrolidine-3-carboxamide], 1.48 nM.
With `CC(C)(C)C(=O)N1CC[C@@H](Oc2ccc(NC(=O)[C@H]3CCN(c4cccnn4)C3)cc2)C1` [Example 780, (3S)-N-(4-{[(3R)-1-(2,2-dimethylpropanoyl)pyrrolidin-3-yl]oxy}phenyl)-1-(pyridazin-3-yl)pyrrolidine-3-carboxamide], the IC50 is 4.07 nM.
With `O=C(Nc1ccc(O[C@@H]2CCN(C(=O)C3CCC(F)(F)CC3)C2)cc1)[C@H]1CCN(c2cccnn2)C1` [Example 781, (3S)-N-[4-({(3R)-1-[(4,4-difluorocyclohexyl)carbonyl]pyrrolidin-3-yl}oxy)phenyl]-1-(pyridazin-3-yl)pyrrolidine-3-carboxamide], 10 nM corresponded to half-maximal inhibition (IC50).
As for `O=C(Nc1ccc(O[C@@H]2CCN(C(=O)CCC(F)(F)F)C2)cc1)[C@H]1CCN(c2cccnn2)C1` [Example 782, (3S)-1-(pyridazin-3-yl)-N-(4-{[(3R)-1-(4,4,4-trifluorobutanoyl)pyrrolidin-3-yl]oxy}phenyl)pyrrolidine-3-carboxamide], the IC50 is 66.9 nM.
Molecule `O=C(Nc1ccc(O[C@@H]2CCN(C(=O)c3ccc(F)cc3F)C2)cc1)[C@H]1CCN(c2cccnn2)C1` [Example 783, (3S)-N-(4-{[(3R)-1-(2,4-difluorobenzoyl)pyrrolidin-3-yl]oxy}phenyl)-1-(pyridazin-3-yl)pyrrolidine-3-carboxamide] gave an IC50 of 6.46 nM.
Next, `CCCc1nc(-c2ccc(NC(=O)C3CN(c4cccnn4)C3)cc2)no1` [Example 784, N-[4-(5-propyl-1,2,4-oxadiazol-3-yl)phenyl]-1-(pyridazin-3-yl)azetidine-3-carboxamide]: 16 nM; `O=C(Nc1ccc(C2CN(C(=O)c3ccccc3F)C2)cc1)[C@H]1CCN(c2cccnn2)C1` [Example 785, (3S)—N-{4-[1-(2-fluorobenzoyl)azetidin-3-yl]phenyl}-1-(pyridazin-3-yl)pyrrolidine-3-carboxamide]: 1.17 nM; `O=C(Nc1ccc(C2CN(C(=O)c3cccc(F)c3)C2)cc1)[C@H]1CCN(c2cccnn2)C1` [Example 786, (3S)-N-{4-[1-(3-fluorobenzoyl)azetidin-3-yl]phenyl}-1-(pyridazin-3-yl)pyrrolidine-3-carboxamide]: 12 nM.
`O=C(Nc1ccc(C2CN(C(=O)c3ccc(F)cc3)C2)cc1)[C@H]1CCN(c2cccnn2)C1` [Example 787, (3S)-N-{4-[1-(4-fluorobenzoyl)azetidin-3-yl]phenyl}-1-(pyridazin-3-yl)pyrrolidine-3-carboxamide]: the IC50 is 63.9 nM.
As for `O=C(Nc1ccc(C2CN(C(=O)c3ccccc3)C2)cc1)[C@H]1CCN(c2cccnn2)C1` [Example 788, (3S)-N-[4-(1-benzoylazetidin-3-yl)phenyl]-1-(pyridazin-3-yl)pyrrolidine-3-carboxamide], the midpoint of inhibition, the IC50, lay at 7.59 nM.
For the molecule `CC(C)(C)C(=O)N1CC(c2ccc(NC(=O)[C@H]3CCN(c4cccnn4)C3)cc2)C1` [Example 789, (3S)-N-{4-[1-(2,2-dimethylpropanoyl)azetidin-3-yl]phenyl}-1-(pyridazin-3-yl)pyrrolidine-3-carboxamide], the IC50 is 28.4 nM.
For `O=C(Nc1ccc(C2CN(C(=O)c3cc(F)cc(F)c3)C2)cc1)[C@H]1CCN(c2cccnn2)C1` [Example 790, (3S)-N-{4-[1-(3,5-difluorobenzoyl)azetidin-3-yl]phenyl}-1-(pyridazin-3-yl)pyrrolidine-3-carboxamide] the value was 74.6 nM.
For the molecule `O=C(Nc1ccc(C2CN(C(=O)c3ccc(F)cc3F)C2)cc1)[C@H]1CCN(c2cccnn2)C1` [Example 792, (3S)-N-{4-[1-(2,4-difluorobenzoyl)azetidin-3-yl]phenyl}-1-(pyridazin-3-yl)pyrrolidine-3-carboxamide], the IC50 is 8.8 nM.
`O=C(Nc1ccc(C2CCN(C(=O)c3ccccc3)CC2)cc1)[C@@H]1CCN(c2cccnn2)C1` [Example 793, (3R)—N-[4-(1-benzoylpiperidin-4-yl)phenyl]-1-(pyridazin-3-yl)pyrrolidine-3-carboxamide] registered an IC50 of 329 nM.

What is called IC50 is the concentration that gives 50% inhibition.
